Experimental data from US20230017045A1, “PYRIDINE AND PYRIMIDINE CARBOXYLATE HERBICIDES AND METHODS OF USE THEREOF” (Dow AgroSciences LLC, priority 2017, published 2023).
Like-named read-outs stand apart in the source and are kept apart here.

Tested on: test plant species
Experiment: Post-emergent herbicidal activity test (greenhouse, foliar spray, visual growth reduction)
Format: in vivo
Conditions: post-emergence, 336 h, 140 g ai/ha
Method in brief: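 Seedlings were raised 7-21 d in a greenhouse under a 15 h photoperiod until the first or second true leaf. Each compound, dissolved in acetone:DMSO 97:3 and diluted into a surfactant-containing spray mixture, was then applied at 187 L/ha. Plants were subirrigated, and growth reduction was scored visually at 14 d.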

[1] = ALOMY: blackgrass (Alopecurus myosuroides), 14 days after application, read-out: Visual Growth Reduction (%) 14 Days After Application, ALOMY
[2] = AMARE: redroot pigweed (Amaranthus retroflexus), 14 days after application, read-out: Visual Growth Reduction (%) 14 Days After Application, AMARE
[3] = AVEFA: wild oat (Avena fatua), 14 days after application, read-out: Visual Growth Reduction (%) 14 Days After Application, AVEFA
[4] = CHEAL: lambsquarters (Chenopodium album), 14 days after application, read-out: Visual Growth Reduction (%) 14 Days After Application, CHEAL
[5] = CIRAR: canada thistle (Cirsium arvense), 14 days after application, read-out: Visual Growth Reduction (%) 14 Days After Application, CIRAR
[6] = CYPES: yellow nutsedge (Cyperus esculentus), 14 days after application, read-out: Visual Growth Reduction (%) 14 Days After Application, CYPES
[7] = DIGSA: crabgrass (Digitaria sanguinalis), 14 days after application, read-out: Visual Growth Reduction (%) 14 Days After Application, DIGSA
[8] = ECHCG: barnyardgrass (Echinochloa crus-galli), 14 days after application, read-out: Visual Growth Reduction (%) 14 Days After Application, ECHCG
[9] = IPOHE: ivy-leaf morning glory (Ipomoea hederacea), 14 days after application, read-out: Visual Growth Reduction (%) 14 Days After Application, IPOHE
[10] = KCHSC: kochia (Bassia scoparia), 14 days after application, read-out: Visual Growth Reduction (%) 14 Days After Application, KCHSC
[11] = ORYSA: rice (Oryza sativa), 14 days after application, read-out: Visual Growth Reduction (%) 14 Days After Application, ORYSA
[12] = SETFA: giant foxtail (Setaria faberi), 14 days after application, read-out: Visual Growth Reduction (%) 14 Days After Application, SETFA
[13] = SORVU: grain sorghum (Sorghum vulgare), 14 days after application, read-out: Visual Growth Reduction (%) 14 Days After Application, SORVU
[14] = STEME: common chickweed (Stellaria media), 14 days after application, read-out: Visual Growth Reduction (%) 14 Days After Application, STEME
[15] = TRZAS: wheat, spring (Triticum aestivum), 14 days after application, read-out: Visual Growth Reduction (%) 14 Days After Application, TRZAS
[16] = barnyardgrass (Echinochloa crus-galli), 14 Days After Application, read-out: Visual Growth Reduction (%) ECHCG
[17] = common chickweed (Stellaria media), 14 Days After Application, read-out: Visual Growth Reduction (%) STEME
[18] = giant foxtail (Setaria faberi), 14 Days After Application, read-out: Visual Growth Reduction (%) SETFA
[19] = ivy-leaf morning glory (Ipomoea hederacea), 14 Days After Application, read-out: Visual Growth Reduction (%) IPOHE
[20] = johnsongrass (Sorghum vulgare), 14 Days After Application, read-out: Visual Growth Reduction (%) SORVU
[21] = kochia (Bassia scoparia), 14 Days After Application, read-out: Visual Growth Reduction (%) KCHSC
[22] = rice (Oryza sativa), 14 Days After Application, read-out: Visual Growth Reduction (%) ORYSA
[23] = wheat, spring (Triticum aestivum), 14 Days After Application, read-out: Visual Growth Reduction (%) TRZAS
[24] = blackgrass (Alopecurus myosuroides), 14 Days After Application, read-out: Visual Growth Reduction (%) ALOMY
[25] = canada thistle (Cirsium arvense), 14 Days After Application, read-out: Visual Growth Reduction (%) CIRAR
[26] = crabgrass (Digitaria sanguinalis), 14 Days After Application, read-out: Visual Growth Reduction (%) DIGSA
[27] = lambsquarters (Chenopodium album), 14 Days After Application, read-out: Visual Growth Reduction (%) CHEAL
[28] = redroot pigweed (Amaranthus retroflexus), 14 Days After Application, read-out: Visual Growth Reduction (%) AMARE
[29] = wild oat (Avena fatua), 14 Days After Application, read-out: Visual Growth Reduction (%) AVEFA
[30] = yellow nutsedge (Cyperus esculentus), 14 Days After Application, read-out: Visual Growth Reduction (%) CYPES

SMILES | pest or weed control at 140 g/ha [1] | pest or weed control at 140 g/ha [2] | pest or weed control at 140 g/ha [3] | pest or weed control at 140 g/ha [4] | pest or weed control at 140 g/ha [5] | pest or weed control at 140 g/ha [6] | pest or weed control at 140 g/ha [8] | pest or weed control at 140 g/ha [9] | pest or weed control at 140 g/ha [10] | pest or weed control at 140 g/ha [11] | pest or weed control at 140 g/ha [12] | pest or weed control at 140 g/ha [13] | pest or weed control at 140 g/ha [14] | pest or weed control at 140 g/ha [15] | pest or weed control at 140 g/ha [24] | pest or weed control at 140 g/ha [26] | pest or weed control at 140 g/ha [27] | pest or weed control at 140 g/ha [28] | pest or weed control at 140 g/ha [29] | pest or weed control at 140 g/ha [30] | also measured
COC(=O)c1nc(-c2ccc(C(F)(F)F)c(Br)c2Cl)ccc1Cl [F140, methyl 6-(3-bromo-2-chloro-4-(trifluoromethyl)phenyl)-3-chloropicolinate] | 0 to 29% | 85 to 94% | 0 to 29% | 85 to 94% | 45 to 59% | 0 to 29% | 0 to 29% | 95 to 100% | 0 to 29% | 0 to 29% | 75 to 84% | 85 to 94% | 0 to 29% | 0 to 29% |  |  |  |  |  |  | pest or weed control at 140 g/ha [7]: 85 to 94%
C#Cc1cc(Cl)c(C(=O)OC)nc1-c1ccc(C(F)(F)F)cc1Cl [F4, Methyl 3-chloro-6-(2-chloro-4-(trifluoromethyl)phenyl)-5-ethynylpicolinate] | 0 to 29% | 0 to 29% | 0 to 29% | 85 to 94% | 75 to 84% | 0 to 29% |  |  |  |  |  |  |  |  |  |  |  |  |  |  | pest or weed control at 140 g/ha [7]: 0 to 29%; pest or weed control at 140 g/ha [16]: 0 to 29%; pest or weed control at 140 g/ha [17]: 0 to 29%; pest or weed control at 140 g/ha [18]: 0 to 29%; pest or weed control at 140 g/ha [19]: 60 to 74%; pest or weed control at 140 g/ha [20]: 30 to 44%; pest or weed control at 140 g/ha [21]: 0 to 29%; pest or weed control at 140 g/ha [22]: 0 to 29%; pest or weed control at 140 g/ha [23]: 0 to 29%
COC(=O)c1nc(-c2ccc(C(F)(F)F)c(Cl)c2)c(F)cc1Cl [F305, Methyl 3-chloro-6-(3-chloro-4-(trifluoromethyl)phenyl)-5-fluoropicolinate] |  |  |  |  |  |  | 0 to 29% | 95 to 100% | 0 to 29% | 0 to 29% | 0 to 29% | 75 to 84% | 0 to 29% | 0 to 29% | 0 to 29% | 85 to 94% | 45 to 59% | 30 to 44% | 0 to 29% | 45 to 59% | pest or weed control at 140 g/ha [25]: 0 to 29%
COC(=O)c1nc(-c2ccccc2)c(F)cc1Cl [F219, Methyl 3-chloro-5-fluoro-6-phenylpicolinate] |  |  |  |  |  |  | 0 to 29% | 45 to 59% | 0 to 29% | 0 to 29% | 0 to 29% | 60 to 74% | 0 to 29% | 0 to 29% | 0 to 29% | 30 to 44% | 45 to 59% | 0 to 29% | 0 to 29% | 0 to 29% | pest or weed control at 140 g/ha [25]: 0 to 29%
COC(=O)c1nc(-c2ccc(OS(C)(=O)=O)cc2F)c(F)cc1Cl [F343] |  |  |  |  |  |  | 85 to 94% | 95 to 100% | 85 to 94% | 30 to 44% | 85 to 94% | 95 to 100% | 0 to 29% | 60 to 74% | 0 to 29% | 85 to 94% | 85 to 94% | 95 to 100% | 30 to 44% | 30 to 44% | pest or weed control at 140 g/ha [25]: 95 to 100%
O=C(O)c1nc(-c2cc(Br)c(C(F)(F)F)cc2Cl)ccc1Cl [F349, 6-(5-Bromo-2-chloro-4-(trifluoromethyl)phenyl)-3-chloropicolinic acid] |  |  |  |  |  |  | 0 to 29% | 95 to 100% | 85 to 94% | 0 to 29% | 75 to 84% | 85 to 94% | 0 to 29% | 85 to 94% | 60 to 74% | 75 to 84% | 95 to 100% | 60 to 74% | 60 to 74% | 0 to 29% | 
COC(=O)c1nc(-c2ccc(C(F)(F)F)cc2C(F)(F)F)ccc1Cl [F17, Methyl 6-(2,4-bis(trifluoromethyl)phenyl)-3-chloropicolinate] | 0 to 29% | 60 to 74% | 0 to 29% | 60 to 74% | 0 to 29% | 0 to 29% |  |  |  |  |  |  |  |  |  |  |  |  |  |  | pest or weed control at 140 g/ha [7]: 45 to 59%; pest or weed control at 140 g/ha [16]: 0 to 29%; pest or weed control at 140 g/ha [17]: 0 to 29%; pest or weed control at 140 g/ha [18]: 0 to 29%; pest or weed control at 140 g/ha [19]: 95 to 100%; pest or weed control at 140 g/ha [20]: 85 to 94%; pest or weed control at 140 g/ha [21]: 0 to 29%; pest or weed control at 140 g/ha [22]: 0 to 29%; pest or weed control at 140 g/ha [23]: 0 to 29%
COC(=O)c1nc(-c2ccc(C(F)(F)F)cc2Cl)ccc1C(F)(F)F [F9, Methyl 6-(2-chloro-4-(trifluoromethyl)phenyl)-3-(trifluoromethyl) picolinate] | 0 to 29% | 30 to 44% | 0 to 29% | 0 to 29% | 0 to 29% | 0 to 29% |  |  |  |  |  |  |  |  |  |  |  |  |  |  | pest or weed control at 140 g/ha [7]: 0 to 29%; pest or weed control at 140 g/ha [16]: 0 to 29%; pest or weed control at 140 g/ha [17]: 0 to 29%; pest or weed control at 140 g/ha [18]: 0 to 29%; pest or weed control at 140 g/ha [19]: 45 to 59%; pest or weed control at 140 g/ha [20]: 0 to 29%; pest or weed control at 140 g/ha [21]: 0 to 29%; pest or weed control at 140 g/ha [22]: 0 to 29%; pest or weed control at 140 g/ha [23]: 0 to 29%
COC(=O)c1nc(-c2ccc([S+](C)[O-])cc2)c(F)cc1Cl (centres unmarked) [F263, Methyl 3-chloro-5-fluoro-6-(4-(methylsulfinyl)phenyl)picolinate] |  |  |  |  |  |  | 0 to 29% | 0 to 29% | 0 to 29% | 0 to 29% | 0 to 29% | 0 to 29% | 0 to 29% | 0 to 29% | 0 to 29% | 0 to 29% | 0 to 29% | 0 to 29% | 0 to 29% | 0 to 29% | pest or weed control at 140 g/ha [25]: 0 to 29%
